Reference: ChEMBL document CHEMBL5500393, “Discovery and Optimization of Novel SaFabI Inhibitors as Specific Therapeutic Agents for MRSA Infection” (J Med Chem, 2024)
Converted amounts (≈) assume the structure as drawn. The source made the active and inactive calls. The rule behind the calls is not given here.

Experiments:
[1] = target: T1, Enoyl-[acyl-carrier-protein] reductase [NADPH] FabI (Staphylococcus aureus) (UniProt Q6GI75); test: Inhibition of N-terminal his 6 tagged Staphylococcus aureus Fabi (1 to […] residues) expressed in Escherichia coli BL21 at 10 uM incubated for 30 mins in presence of NADPH by fluorescence based microplate reader analysis relative to control
T1 sequence (whole entry): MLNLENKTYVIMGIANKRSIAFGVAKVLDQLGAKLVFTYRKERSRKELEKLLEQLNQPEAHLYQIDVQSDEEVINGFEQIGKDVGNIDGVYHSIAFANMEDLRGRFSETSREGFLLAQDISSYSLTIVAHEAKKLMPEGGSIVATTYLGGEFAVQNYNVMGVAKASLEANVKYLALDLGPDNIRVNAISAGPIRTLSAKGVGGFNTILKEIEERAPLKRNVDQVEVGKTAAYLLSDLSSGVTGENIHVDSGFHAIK

[2] = target: T1, Enoyl-[acyl-carrier-protein] reductase [NADPH] FabI (Staphylococcus aureus); test: Inhibition of N-terminal his 6 tagged Staphylococcus aureus Fabi (1 to […] residues) expressed in Escherichia coli BL21 at 1 uM incubated for 30 mins in presence of NADPH by fluorescence based microplate reader analysis relative to control
[3] = target: T2, Enoyl-[acyl-carrier-protein] reductase [NADPH] FabI (Staphylococcus aureus, UniProt Q6GI75); test: Inhibition of N-terminal his 6 tagged Staphylococcus aureus Fabi (1 to […] residues) expressed in Escherichia coli BL21 incubated for 30 mins in presence of NADPH by fluorescence based microplate reader analysis
T2 sequence (Q6GI75 whole entry): T1 sequence (whole entry)

[4] = Inhibition of N-terminal his 6 tagged Escherichia coli Fabi (1 to 789 residues) expressed in Escherichia coli BL21 incubated for 30 mins in presence of NADH by fluorescence based microplate reader analysis
[5] = Inhibition of N-terminal his 6 tagged Acinetobacter baumannii Fabi (1 to 804 residues) expressed in Escherichia coli BL21 incubated for 30 mins in presence of NADH by fluorescence based microplate reader analysis
Staphylococcus aureus [6] = test: Antimicrobial activity against […] Staphylococcus aureus ATCC33591 measured after 24 hrs by CLSI protocol based microdilution method; type: functional
Staphylococcus aureus [7] = test: Antimicrobial activity against […] Staphylococcus aureus ATCC43300 measured after 24 hrs by CLSI protocol based microdilution method; type: functional
Staphylococcus aureus [8] = test: Antimicrobial activity against […] Staphylococcus aureus USA300 measured after 24 hrs by CLSI protocol based microdilution method; type: functional
Staphylococcus aureus [9] = test: Antimicrobial activity against […] Staphylococcus aureus NRS271 measured after 24 hrs by CLSI protocol based microdilution method; type: functional
Staphylococcus aureus [10] = test: Antimicrobial activity against methicillin-susceptible Staphylococcus aureus ATCC29213 measured after 24 hrs by CLSI protocol based microdilution method; type: functional
Staphylococcus aureus [11] = test: Antimicrobial activity against methicillin-susceptible Staphylococcus aureus ATCC25923 measured after 24 hrs by CLSI protocol based microdilution method; type: functional
Enterococcus faecium = test: Antimicrobial activity against Enterococcus faecium ATCC19434 measured after 24 hrs by CLSI protocol based microdilution method; type: functional
Enterococcus faecalis = test: Antimicrobial activity against Enterococcus faecalis ATCC29212 measured after 24 hrs by CLSI protocol based microdilution method; type: functional
Pseudomonas aeruginosa = test: Antimicrobial activity against Pseudomonas aeruginosa PAO1 measured after 24 hrs by CLSI protocol based microdilution method; type: functional
Escherichia coli = test: Antimicrobial activity against Escherichia coli ATCC25922 measured after 24 hrs by CLSI protocol based microdilution method; type: functional
Acinetobacter baumannii = test: Antimicrobial activity against Acinetobacter baumannii ATCC19606 measured after 24 hrs by CLSI protocol based microdilution method; type: functional
Candida albicans = test: Antimicrobial activity against Candida albicans SC5314 measured after 48 hrs by CLSI protocol based microdilution method; type: functional
[12] = Cytotoxicity against HEK293 cells assessed as survival rate at 400 uM measured after 48 hrs by CCK-8 method relative to control; type: toxicity, cell-based; details: human, read-out: Survival
HepG2 [13] = test: Cytotoxicity against human HepG2 cells assessed as survival rate at 400 uM measured after 48 hrs by CCK-8 method relative to control; type: functional; details: read-out: Survival
[14] = Cytotoxicity against HEK293 cells assessed as survival rate at 800 uM measured after 48 hrs by CCK-8 method relative to control; type: toxicity, cell-based; details: human, read-out: Survival
HepG2 [15] = test: Cytotoxicity against human HepG2 cells assessed as survival rate at 800 uM measured after 48 hrs by CCK-8 method relative to control; type: functional; details: read-out: Survival
[16] = Hemolytic activity in sheep erythrocytes assessed as hemolysis at 64 ug/ml incubated for 1 hr by microplate reader based analysis relative to control; type: toxicity, cell-based, Ovis aries, Erythrocyte; details: at 64 µg/mL, read-out: Activity
[17] = Hemolytic activity in sheep erythrocytes assessed as hemolysis at 128 ug/ml incubated for 1 hr by microplate reader based analysis relative to control; type: toxicity, cell-based, Ovis aries, Erythrocyte; details: at 128 µg/mL, read-out: Activity
[18] = Hemolytic activity in sheep erythrocytes assessed as hemolysis at 256 ug/ml incubated for 1 hr by microplate reader based analysis relative to control; type: toxicity, cell-based, Ovis aries, Erythrocyte; details: at 256 µg/mL, read-out: Activity
[19] = Hemolytic activity in sheep erythrocytes assessed as hemolysis incubated for 1 hr by microplate reader based analysis; type: toxicity, cell-based, Ovis aries, Erythrocyte
Staphylococcus aureus [20] = test: Antimicrobial activity against Staphylococcus aureus measured after 24 hrs by CLSI protocol based microdilution method; type: functional
[21] = Selectivity index, ratio of HC50 for sheep erythrocytes to MIC for Staphylococcus aureus; type: toxicity; details: read-out: Selectivity Index
Staphylococcus aureus [22] = test: In vivo antibacterial activity against methicilin-resistant Staphylococcus aureus ATCC33591 infected in BALB/c mouse skin infection model assessed as decrease in lesion size at 10 mg/kg administered daily for 4 days (reference value: 43.4 mm2); type: functional; details: time 4 day
Staphylococcus aureus [23] = test: In vivo antibacterial activity against methicilin-resistant Staphylococcus aureus ATCC33591 infected in BALB/c mouse skin infection model assessed as reduction in area of injury at 20 mg/kg administered daily for 4 days by H and E staining based analysis; type: functional, organism-based; details: time 4.0 day
Staphylococcus aureus [24] = test: In vivo antibacterial activity against methicilin-resistant Staphylococcus aureus ATCC33591 infected in BALB/c mouse skin infection model assessed as reduction in number of inflammatory cells at 20 mg/kg administered daily for 4 days by H and E staining based analysis; type: functional, organism-based; details: time 4.0 day
Staphylococcus aureus [25] = test: In vivo antibacterial activity against methicilin-resistant Staphylococcus aureus ATCC33591 infected in BALB/c mouse skin infection model assessed as restoration of cell morphology at 20 mg/kg administered daily for 4 days by H and E staining based analysis; type: functional, organism-based; details: time 4.0 day
Staphylococcus aureus [26] = test: Antimicrobial activity against […] Staphylococcus aureus ATCC33591 assessed as reduction in RNA content measured after 4 hrs by microplate reader based analysis; type: functional

With `CCn1c(C2CC(=O)N(c3cccc(Br)c3C)C2)nc2ccccc21` (centres undefined) the inhibition [1] was 96.3%, the inhibition [2] was 82.5% and the IC50 [3] was 0.342 µM. It also gave an IC50 [4] of 0.0359 µM, an IC50 [5] of 0.266 µM and an MIC (Staphylococcus aureus [6]) of 1 mg/L (≈ 2.51 µM). It also gave an MIC (Staphylococcus aureus [7]) of 2 mg/L (≈ 5.02 µM), an MIC (Staphylococcus aureus [8]) of 1 mg/L (≈ 2.51 µM) and an MIC (Staphylococcus aureus [9]) of 2 mg/L (≈ 5.02 µM). It also gave an MIC (Staphylococcus aureus [10]) of 2 mg/L (≈ 5.02 µM), an MIC (Staphylococcus aureus [11]) of 2 mg/L (≈ 5.02 µM) and an MIC (Enterococcus faecium) of over 32 mg/L. The MIC (Enterococcus faecalis) was over 32 mg/L, the MIC (Pseudomonas aeruginosa) was over 32 mg/L and the MIC (Escherichia coli) was over 32 mg/L. It also gave an MIC (Acinetobacter baumannii) of over 32 mg/L, an MIC (Candida albicans) of over 32 mg/L and a viability at 48 h, 400 µM [12] of over 70%. For the same molecule, the viability at 400 µM (HepG2 [13]) was over 70%, the viability at 48 h, 800 µM [14] was over 65% and the viability at 800 µM (HepG2 [15]) was over 65%. The hemolysis at 1 h, 64 ug/ml [16] was 4.3%, the hemolysis at 1 h, 128 ug/ml [17] was 7.5% and the hemolysis at 1 h, 256 ug/ml [18] was 12.7%. The HC50 at 1 h [19] was over 256 µg/mL, the MIC (Staphylococcus aureus [20]) was 1 mg/L (≈ 2.51 µM) and the selectivity ratio [21] was over 128.
Molecule `CC(=O)NC[C@H]1CN(c2ccc(N3CCOCC3)c(F)c2)C(=O)O1` [LINEZOLID] has an MIC (Staphylococcus aureus [8]) of 1 mg/L (≈ 2.96 µM), an MIC (Staphylococcus aureus [9]) of over 32 mg/L and an MIC (Enterococcus faecium) of 2 mg/L (≈ 5.93 µM). It also gave an MIC (Pseudomonas aeruginosa) of over 32 mg/L, an MIC (Escherichia coli) of over 32 mg/L and an MIC (Acinetobacter baumannii) of over 32 mg/L. The MIC (Candida albicans) was over 32 mg/L, the Activity (Staphylococcus aureus [22]) was 25.7 mm2 and the Activity (Staphylococcus aureus [23]) was “inactive”. The Activity (Staphylococcus aureus [24]) was “inactive” and the Activity (Staphylococcus aureus [25]) was “inactive”.
With `CO[C@H]1/C=C/O[C@@]2(C)Oc3c(C)c(O)c4c(O)c(c(/C=N/N5CCN(C)CC5)c(O)c4c3C2=O)NC(=O)/C(C)=C\C=C\[C@H](C)[C@H](O)[C@@H](C)[C@@H](O)[C@@H](C)[C@H](OC(C)=O)[C@@H]1C` [RIFAMPIN] the MIC (Staphylococcus aureus [26]) was 0.016 mg/L (≈ 0.0194 µM).
